Key:
MCF7 [1] = experiment: Cytotoxicity against human MCF7 cells assessed as cell viability at 10 uM after 24 hrs by MTT assay; format: functional; conditions: MCF7, 24 h, read-out: Activity
PC-3 [2] = experiment: Cytotoxicity against human PC3 cells assessed as cell viability at 10 uM after 24 hrs by MTT assay; format: functional; conditions: PC-3, 24 h, read-out: Activity
K562 [3] = experiment: Cytotoxicity against human K562 cells assessed as cell viability at 10 uM after 24 hrs by MTT assay; format: functional; conditions: K562, 24 h, read-out: Activity
PC-3 [4] = experiment: Induction of apoptosis in human PC3 cells assessed as late apoptotic cells at 40 uM after 48 hrs by annexinV/propidium iodide staining-based FITC analysis relative to control; format: functional
PC-3 [5] = experiment: Induction of apoptosis in human PC3 cells assessed as necrotic cells at 20 uM after 48 hrs by annexinV/propidium iodide staining-based FITC analysis relative to control; format: functional
DU-145 = experiment: Cytotoxicity against human DU145 cells after 24 hrs by MTT assay; format: functional, cell-based; conditions: DU-145, 24 h
PC-3 [6] = experiment: Cell cycle arrest in human PC3 cells assessed as accumulation at G0/G1 phase at 40 uM after 48 hrs by propidium iodide staining-based flow cytometric analysis relative to control; format: functional
PC-3 [7] = experiment: Induction of apoptosis in human PC3 cells assessed as late apoptotic cells at 30 uM after 48 hrs by annexinV/propidium iodide staining-based FITC analysis relative to control; format: functional
PC-3 [8] = experiment: Induction of apoptosis in human PC3 cells assessed as necrotic cells at 30 uM after 48 hrs by annexinV/propidium iodide staining-based FITC analysis relative to control; format: functional
PC-3 [9] = experiment: Cytotoxicity against human PC3 cells after 24 hrs by MTT assay; format: functional, cell-based; conditions: PC-3, 24 h
PC-3 [10] = experiment: Induction of apoptosis in human PC3 cells assessed as late apoptotic cells at 20 uM after 48 hrs by annexinV/propidium iodide staining-based FITC analysis relative to control; format: functional
PC-3 [11] = experiment: Cell cycle arrest in human PC3 cells assessed as accumulation at G2/M phase at 40 uM after 48 hrs by propidium iodide staining-based flow cytometric analysis relative to control; format: functional
PC-3 [12] = experiment: Induction of apoptosis in human PC3 cells assessed as early apoptotic cells at 20 uM after 48 hrs by annexinV/propidium iodide staining-based FITC analysis relative to control; format: functional
PC-3 [13] = experiment: Cell cycle arrest in human PC3 cells assessed as accumulation at G2/M phase at 30 uM after 48 hrs by propidium iodide staining-based flow cytometric analysis relative to control; format: functional
PC-3 [14] = experiment: Induction of apoptosis in human PC3 cells assessed as early apoptotic cells at 40 uM after 48 hrs by annexinV/propidium iodide staining-based FITC analysis relative to control; format: functional
PC-3 [15] = experiment: Cell cycle arrest in human PC3 cells assessed as accumulation at G0/G1 phase at 30 uM after 48 hrs by propidium iodide staining-based flow cytometric analysis relative to control; format: functional
K562 [16] = experiment: Cytotoxicity against human K562 cells after 24 hrs by MTT assay; format: functional, cell-based; conditions: K562, 24 h
PC-3 [17] = experiment: Cell cycle arrest in human PC3 cells assessed as accumulation at S phase at 30 uM after 48 hrs by propidium iodide staining-based flow cytometric analysis relative to control; format: functional
PC-3 [18] = experiment: Induction of apoptosis in human PC3 cells assessed as early apoptotic cells at 30 uM after 48 hrs by annexinV/propidium iodide staining-based FITC analysis relative to control; format: functional
PC-3 [19] = experiment: Cell cycle arrest in human PC3 cells assessed as accumulation at G2/M phase at 20 uM after 48 hrs by propidium iodide staining-based flow cytometric analysis relative to control; format: functional
PC-3 [20] = experiment: Cell cycle arrest in human PC3 cells assessed as accumulation at S phase at 40 uM after 48 hrs by propidium iodide staining-based flow cytometric analysis relative to control; format: functional
PC-3 [21] = experiment: Cell cycle arrest in human PC3 cells assessed as accumulation at G0/G1 phase after 48 hrs by propidium iodide staining-based flow cytometric analysis; format: functional
MCF7 [22] = experiment: Cytotoxicity against human MCF7 cells after 24 hrs by MTT assay; format: functional, cell-based; conditions: MCF7, 24 h
PC-3 [23] = experiment: Induction of apoptosis in human PC3 cells assessed as necrotic cells at 40 uM after 48 hrs by annexinV/propidium iodide staining-based FITC analysis relative to control; format: functional
PC-3 [24] = experiment: Cell cycle arrest in human PC3 cells assessed as accumulation at G0/G1 phase at 20 uM after 48 hrs by propidium iodide staining-based flow cytometric analysis relative to control; format: functional
PC-3 [25] = experiment: Cell cycle arrest in human PC3 cells assessed as accumulation at S phase at 20 uM after 48 hrs by propidium iodide staining-based flow cytometric analysis relative to control; format: functional
PC-3 [26] = experiment: Cell cycle arrest in human PC3 cells assessed as accumulation at G0/G1 phase at 10 uM after 48 hrs by propidium iodide staining-based flow cytometric analysis relative to control; format: functional
PC-3 [27] = experiment: Induction of apoptosis in human PC3 cells assessed as late apoptotic cells at 10 uM after 48 hrs by annexinV/propidium iodide staining-based FITC analysis relative to control; format: functional
PC-3 [28] = experiment: Cell cycle arrest in human PC3 cells assessed as accumulation at G2/M phase at 10 uM after 48 hrs by propidium iodide staining-based flow cytometric analysis relative to control; format: functional
PC-3 [29] = experiment: Cell cycle arrest in human PC3 cells assessed as accumulation at S phase at 10 uM after 48 hrs by propidium iodide staining-based flow cytometric analysis relative to control; format: functional
PC-3 [30] = experiment: Induction of apoptosis in human PC3 cells assessed as early apoptotic cells at 10 uM after 48 hrs by annexinV/propidium iodide staining-based FITC analysis relative to control; format: functional
PC-3 [31] = experiment: Induction of apoptosis in human PC3 cells assessed as necrotic cells at 10 uM after 48 hrs by annexinV/propidium iodide staining-based FITC analysis relative to control; format: functional

SMILES | viability at 10 µM (MCF7 [1]) [%] | viability at 10 µM (PC-3 [2]) [%] | viability at 10 µM (K562 [3]) [%] | Activity (PC-3 [4]) [%] | Activity (PC-3 [5]) [%] | IC50 (DU-145) [µM] | Activity (PC-3 [6]) [%] | IC50 (PC-3 [9]) [µM] | Activity (PC-3 [10]) [%] | Activity (PC-3 [11]) [%] | Activity (PC-3 [12]) [%] | Activity (PC-3 [14]) [%] | IC50 (K562 [16]) [µM] | Activity (PC-3 [19]) [%] | Activity (PC-3 [20]) [%] | IC50 (MCF7 [22]) [µM] | Activity (PC-3 [23]) [%] | Activity (PC-3 [24]) [%] | Activity (PC-3 [25]) [%] | further results
C/C=C1\C(=O)C[C@H]2[C@@H]3CCC4=CC(=O)CC[C@]4(C)[C@H]3CC[C@]12C [GUGGULSTERONE] | 65 | 80 | 84 |  |  |  |  |  |  |  |  |  |  |  |  |  |  |  |  | 
CC[C@H](/C=C/[C@@H](C)[C@H]1CC[C@H]2[C@@H]3CC=C4C[C@@H](O)CC[C@]4(C)[C@H]3[C@H](O)C[C@]12C)C(C)C | 68 | 94.5 | 43 | 2.49 | 0.96 | 46.8 | 76.37 | 32.4 | 1.91 | 12.39 | 1.77 | 1.32 | 7.18 | 18.47 | 11.24 | 13.5 | 1.52 | 59.89 | 21.63 | Activity (PC-3 [7]): 2.95%; Activity (PC-3 [8]): 1.41%; Activity (PC-3 [13]): 13.33%; Activity (PC-3 [15]): 70.27%; Activity (PC-3 [17]): 16.4%; Activity (PC-3 [18]): 1.14%; Activity (PC-3 [21]): Dose-dependent effect
CC[C@H](/C=C/[C@@H](C)[C@H]1CC[C@H]2[C@@H]3CC=C4C[C@@H](O)CC[C@]4(C)[C@H]3CC[C@]12C)C(C)C [STIGMASTEROL] | 68 | 60 | 43 | 5.42 | 1.51 | 22.7 | 50.58 | 18.3 | 3.77 | 21.03 | 2.3 | 2.73 | 11.1 | 18.19 | 36.4 | 21.4 | 2.07 | 51.41 | 30.4 | Activity (PC-3 [26]): 52.07%; Activity (PC-3 [27]): 3.18%; Activity (PC-3 [28]): 21.03%; Activity (PC-3 [29]): 26.9%; Activity (PC-3 [30]): 2.78%; Activity (PC-3 [31]): 1.05%
COc1cccc2c1C(=O)c1c(O)c3c(c(O)c1C2=O)C[C@@](O)(C(=O)CO)C[C@@H]3O[C@H]1C[C@H](N)[C@H](O)[C@H](C)O1 [DOXORUBICIN] |  |  |  |  |  | 13.2 |  | 8.46 |  |  |  |  | 3.79 |  |  | 1.37 |  |  |  | 
